Reference: ChEMBL document CHEMBL5034010, “Novel Cephalosporin Conjugates Display Potent and Selective Inhibition of Imipenemase-Type Metallo-β-Lactamases” (J Med Chem, 2021)
Converted amounts (≈) assume the structure as drawn. The source made the active and inactive calls. The rule behind the calls is not given here.

Tests used:
Enterobacter cloacae [1] = assay: Inhibition of Metallo-beta-lactamase IMP-1 in Enterobacter cloacae clinical isolate assessed as MIC for meropenem antibacterial activity at 32 ug/ml (Rvb =16 ug/ml); conditions: dose 32.0 µg/ml
Enterobacter cloacae [2] = assay: Inhibition of Metallo-beta-lactamase IMP-1 in Enterobacter cloacae clinical isolate assessed as MIC for meropenem antibacterial activity at 64 ug/ml (Rvb =16 ug/ml); conditions: dose 64.0 µg/ml
Enterobacter cloacae [3] = assay: Inhibition of Metallo-beta-lactamase IMP-1 in Enterobacter cloacae clinical isolate assessed as MIC for meropenem antibacterial activity at 128 ug/ml (Rvb =16 ug/ml); conditions: dose 128.0 µg/ml
Escherichia coli [4] = assay: Inhibition of Metallo-beta-lactamase NDM-1 in Escherichia coli clinical isolate assessed as MIC for meropenem antibacterial activity at 32 ug/ml (reference value: 32 ug/ml); conditions: dose 32.0 µg/ml
Escherichia coli [5] = assay: Inhibition of Metallo-beta-lactamase NDM-1 in Escherichia coli clinical isolate assessed as MIC for meropenem antibacterial activity at 64 ug/ml (reference value: 32 ug/ml); conditions: dose 64.0 µg/ml
Escherichia coli [6] = assay: Inhibition of Metallo-beta-lactamase NDM-1 in Escherichia coli clinical isolate assessed as MIC for meropenem antibacterial activity at 128 ug/ml (reference value: 32 ug/ml); conditions: dose 128.0 µg/ml
Klebsiella pneumoniae [7] = assay: Inhibition of Metallo-beta-lactamase IMP-28 in Klebsiella pneumoniae clinical isolate assessed as MIC for meropenem antibacterial activity at 32 ug/ml (reference value: 2 ug/ml); conditions: dose 32.0 µg/ml
Klebsiella pneumoniae [8] = assay: Inhibition of Metallo-beta-lactamase IMP-28 in Klebsiella pneumoniae clinical isolate assessed as MIC for meropenem antibacterial activity at 64 ug/ml (reference value: 2 ug/ml); conditions: dose 64.0 µg/ml
Klebsiella pneumoniae [9] = assay: Inhibition of Metallo-beta-lactamase IMP-28 in Klebsiella pneumoniae clinical isolate assessed as MIC for meropenem antibacterial activity at 128 ug/ml (reference value: 2 ug/ml); conditions: dose 128.0 µg/ml
Escherichia coli [10] = assay: Inhibition of Metallo-beta-lactamase VIM-2 in Escherichia coli clinical isolate assessed as MIC for meropenem antibacterial activity at 32 ug/ml (reference value: 4 ug/ml); conditions: dose 32.0 µg/ml
Escherichia coli [11] = assay: Inhibition of Metallo-beta-lactamase VIM-2 in Escherichia coli clinical isolate assessed as MIC for meropenem antibacterial activity at 64 ug/ml (reference value: 4 ug/ml); conditions: dose 64.0 µg/ml
Escherichia coli [12] = assay: Inhibition of Metallo-beta-lactamase VIM-2 in Escherichia coli clinical isolate assessed as MIC for meropenem antibacterial activity at 128 ug/ml (reference value: 4 ug/ml); conditions: dose 128.0 µg/ml
Enterobacter cloacae [13] = assay: Antibacterial activity against beta-lactamase IMP1 producing Enterobacter cloacae clinical isolate measured upto 128 ug/ml; assay type: functional, organism-based
Klebsiella pneumoniae [14] = assay: Antibacterial activity against beta-lactamase IMP-28 producing Klebsiella pneumoniae clinical isolate measured upto 128 ug/ml; assay type: functional, organism-based
Escherichia coli [15] = assay: Antibacterial activity against beta-lactamase VIM2 producing Escherichia coli clinical isolate measured upto 128 ug/ml; assay type: functional, organism-based
[16] = Inhibition of Enterobacter cloacae IMP-1 using nitrocefin chromogenic substrate measured after 15 to 60 min at 25 degC by microplate reader
[17] = Inhibition of Klebsiella pneumoniae beta-lactamase IMP-28 using nitrocefin chromogenic substrate measured after 15 to 60 min at 25 degC by microplate reader
[18] = Inhibition of Escherichia coli beta-lactamase VIM-2 using nitrocefin chromogenic substrate measured after 15 to 60 min at 25 degC by microplate reader
Klebsiella pneumoniae [19] = assay: Substrate activity at Klebsiella pneumoniae beta-lactamase IMP-28 assessed as compound hydrolysis by measuring Km by Michaelis-Menten analysis
Klebsiella pneumoniae [20] = assay: Substrate activity at Klebsiella pneumoniae beta-lactamase IMP-28 assessed as compound hydrolysis by measuring Kcat by Michaelis-Menten analysis
Klebsiella pneumoniae [21] = assay: Substrate activity at Klebsiella pneumoniae beta-lactamase IMP-28 assessed as compound hydrolysis by measuring Kcat/Km by Michaelis-Menten analysis
Enterobacter cloacae [22] = assay: Inhibition of Metallo-beta-lactamase IMP-1 in Enterobacter cloacae clinical isolate assessed as fold reduction in meropenem MIC at 32 ug/ml; conditions: dose 32.0 µg/ml
Enterobacter cloacae [23] = assay: Inhibition of Metallo-beta-lactamase IMP-1 in Enterobacter cloacae clinical isolate assessed as fold reduction in meropenem MIC at 64 ug/ml; conditions: dose 64.0 µg/ml
Enterobacter cloacae [24] = assay: Inhibition of Metallo-beta-lactamase IMP-1 in Enterobacter cloacae clinical isolate assessed as fold reduction in meropenem MIC at 128 ug/ml; conditions: dose 128.0 µg/ml
Klebsiella pneumoniae [25] = assay: Inhibition of Metallo-beta-lactamase IMP-28 in Klebsiella pneumoniae clinical isolate assessed as fold reduction in meropenem MIC at 32 ug/ml; conditions: dose 32.0 µg/ml
Klebsiella pneumoniae [26] = assay: Inhibition of Metallo-beta-lactamase IMP-28 in Klebsiella pneumoniae clinical isolate assessed as fold reduction in meropenem MIC at 64 ug/ml; conditions: dose 64.0 µg/ml
Klebsiella pneumoniae [27] = assay: Inhibition of Metallo-beta-lactamase IMP-28 in Klebsiella pneumoniae clinical isolate assessed as fold reduction in meropenem MIC at 128 ug/ml; conditions: dose 128.0 µg/ml
Escherichia coli [28] = assay: Inhibition of Metallo-beta-lactamase VIM-2 in Escherichia coli clinical isolate assessed as fold reduction in meropenem MIC at 32 ug/ml; conditions: dose 32.0 µg/ml
Escherichia coli [29] = assay: Inhibition of Metallo-beta-lactamase VIM-2 in Escherichia coli clinical isolate assessed as fold reduction in meropenem MIC at 64 ug/ml; conditions: dose 64.0 µg/ml
Escherichia coli [30] = assay: Inhibition of Metallo-beta-lactamase VIM-2 in Escherichia coli clinical isolate assessed as fold reduction in meropenem MIC at 128 ug/ml; conditions: dose 128.0 µg/ml
Escherichia coli [31] = assay: Inhibition of Metallo-beta-lactamase NDM-1 in Escherichia coli clinical isolate assessed as fold reduction in meropenem MIC at 32 ug/ml; conditions: dose 32.0 µg/ml
Escherichia coli [32] = assay: Inhibition of Metallo-beta-lactamase NDM-1 in Escherichia coli clinical isolate assessed as fold reduction in meropenem MIC at 64 ug/ml; conditions: dose 64.0 µg/ml
Escherichia coli [33] = assay: Inhibition of Metallo-beta-lactamase NDM-1 in Escherichia coli clinical isolate assessed as fold reduction in meropenem MIC at 128 ug/ml; conditions: dose 128.0 µg/ml
Escherichia coli [34] = assay: Antibacterial activity against beta-lactamase NDM1 producing Escherichia coli clinical isolate measured upto 128 ug/ml; assay type: functional, organism-based
[35] = Stability of the compound assessed as Klebsiella pneumoniae beta-lactamase IMP-28-mediated degradation by measuring appearance of vinyl protons release measured after 120 mins by NMR spectra; assay type: ADME; conditions: 2 h
[36] = Inhibition of Escherichia coli beta-lactamase NDM-1 using nitrocefin chromogenic substrate measured after 15 to 60 min at 25 degC by microplate reader

| Structure (SMILES) | MIC (Enterobacter cloacae [1]) | MIC (Enterobacter cloacae [2]) | MIC (Enterobacter cloacae [3]) | MIC (Escherichia coli [4]) | MIC (Escherichia coli [5]) | MIC (Escherichia coli [6]) | MIC (Klebsiella pneumoniae [7]) | MIC (Klebsiella pneumoniae [8]) | MIC (Klebsiella pneumoniae [9]) | MIC (Escherichia coli [10]) | MIC (Escherichia coli [11]) | MIC (Escherichia coli [12]) | Activity (Enterobacter cloacae [13]) | Activity (Klebsiella pneumoniae [14]) | Activity (Escherichia coli [15]) | IC50 [16] | IC50 [17] | IC50 [18] | Km (Klebsiella pneumoniae [19]) | kcat (Klebsiella pneumoniae [20]) | further results |
| --- | --- | --- | --- | --- | --- | --- | --- | --- | --- | --- | --- | --- | --- | --- | --- | --- | --- | --- | --- | --- | --- |
| CC1=C(C(=O)O)N2C(=O)[C@@H](NC(=O)Cc3ccccc3)[C@H]2SC1 | 16 µg/mL (≈ 48.1 µM) | 16 µg/mL (≈ 48.1 µM) | 16 µg/mL (≈ 48.1 µM) | 16 µg/mL (≈ 48.1 µM) | 16 µg/mL (≈ 48.1 µM) | 16 µg/mL (≈ 48.1 µM) | 1 µg/mL (≈ 3.01 µM) | 0.5 µg/mL (≈ 1.5 µM) | 0.25 µg/mL (≈ 0.752 µM) | 2 µg/mL (≈ 6.02 µM) | 2 µg/mL (≈ 6.02 µM) | 1 µg/mL (≈ 3.01 µM) | inactive | inactive | inactive | > 100 µM | > 100 µM | 57 µM | 392 µM | 23.3 s⁻¹ | kcat/Km (Klebsiella pneumoniae [21]): 0.059 µM⁻¹ s⁻¹; fold change (FC) (Enterobacter cloacae [22]): 1; fold change (FC) (Enterobacter cloacae [23]): 1; fold change (FC) (Enterobacter cloacae [24]): 1; fold change (FC) (Klebsiella pneumoniae [25]): 2; fold change (FC) (Klebsiella pneumoniae [26]): 4; fold change (FC) (Klebsiella pneumoniae [27]): 8; fold change (FC) (Escherichia coli [28]): 2; fold change (FC) (Escherichia coli [29]): 2; fold change (FC) (Escherichia coli [30]): 4; fold change (FC) (Escherichia coli [31]): 2; fold change (FC) (Escherichia coli [32]): 2; fold change (FC) (Escherichia coli [33]): 2; Activity (Escherichia coli [34]): inactive |
| CC(=O)OCC1=C(C(=O)O)N2C(=O)[C@@H](NC(=O)Cc3ccccc3)[C@H]2SC1 [CEFALORAM] |  |  |  |  |  |  |  |  |  |  |  |  |  |  |  |  |  |  |  |  | Stability [35]: Unstable |
| O=C(O)CSCC1=C(C(=O)O)N2C(=O)[C@@H](NC(=O)Cc3ccccc3)[C@H]2SC1 | 8 µg/mL (≈ 18.9 µM) | 8 µg/mL (≈ 18.9 µM) | 4 µg/mL (≈ 9.47 µM) | 16 µg/mL (≈ 37.9 µM) | 16 µg/mL (≈ 37.9 µM) | 8 µg/mL (≈ 18.9 µM) | 0.25 µg/mL (≈ 0.592 µM) | 0.25 µg/mL (≈ 0.592 µM) | 0.125 µg/mL (≈ 0.296 µM) | 2 µg/mL (≈ 4.73 µM) | 2 µg/mL (≈ 4.73 µM) | 1 µg/mL (≈ 2.37 µM) | inactive | inactive | inactive | > 100 µM | > 100 µM | 53 µM | 219 µM | 37 s⁻¹ | IC50 [36]: 72 µM; kcat/Km (Klebsiella pneumoniae [21]): 0.169 µM⁻¹ s⁻¹; fold change (FC) (Enterobacter cloacae [22]): 2; fold change (FC) (Enterobacter cloacae [23]): 2; fold change (FC) (Enterobacter cloacae [24]): 4; fold change (FC) (Klebsiella pneumoniae [25]): 8; fold change (FC) (Klebsiella pneumoniae [26]): 8; fold change (FC) (Klebsiella pneumoniae [27]): 16; fold change (FC) (Escherichia coli [28]): 2; fold change (FC) (Escherichia coli [29]): 2; fold change (FC) (Escherichia coli [30]): 4; fold change (FC) (Escherichia coli [31]): 2; fold change (FC) (Escherichia coli [32]): 2; fold change (FC) (Escherichia coli [33]): 4; Activity (Escherichia coli [34]): inactive |
